Laboratory results as given in patent US9980943B2, “Methods of treating muscular dystrophy” (BOARD OF REGENTS OF THE NEVADA SYSTEM OF HIGHER EDUCATION, …, priority 2013, dated 2018).

Columns and labels:
Assay type in all cases: cell-based, mouse
[1] = test system: β-galactosidase in CMV-LacZ C2C12 myoblasts; assay: CMV-LacZ secondary screen in C2C12 myoblasts (β-Gal stabilizing assay); conditions: CMV-LacZ C2C12 myoblasts
Summary of the method: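 A secondary screen identifies compounds that stabilize β-gal independently of the native promoter, using CMV-LacZ C2C12 cells. Curves span 0.5–40 μM at six levels, in duplicate.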

[2] = test system: β-galactosidase in CMV-LacZ C2C12 myotubes; assay: CMV-LacZ secondary screen in C2C12 myotubes (β-Gal stabilizing assay); conditions: C2C12 CMV-LacZ myotubes, fold relative to DMSO
Summary of the method: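 Dose-response runs at 0.5–40 μM (0.5, 1, 5, 10, 20, 40 μM; N=2 per point) used a clonal C2C12 line carrying CMV-LacZ. Cells were assayed as myoblasts or as differentiated myotubes, and β-galactosidase levels were read with the FDG fluorogenic substrate.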

[3] = test system: α7 integrin (LacZ reporter in α7βgal+/− myoblasts); assay: Myoblast α7+/LacZ integrin FDG assay (Burkin assay in myoblasts, 96-well); conditions: α7+/LacZ myoblasts, 96-well
[4] = test system: α7 integrin (LacZ reporter in α7+/LacZ myotubes); assay: Myotube α7 integrin FDG assay (Burkin assay in myotubes, 96-well); conditions: myotubes

SMILES	CMV-LACZ in Myoblasts (β-galactosidase activity relative to DMSO) ([1]; 0.5 uM)	CMV-LACZ in Myoblasts (β-galactosidase activity relative to DMSO) ([1]; 1 uM)	CMV-LACZ in Myoblasts (β-galactosidase activity relative to DMSO) ([1]; 5 uM)	CMV-LACZ in Myoblasts (β-galactosidase activity relative to DMSO) ([1]; 10 uM)	CMV-LACZ in Myoblasts (β-galactosidase activity relative to DMSO) ([1]; 20 uM)	CMV-LACZ in Myoblasts (β-galactosidase activity relative to DMSO) ([1]; 40 uM)	CMV-LACZ in Myotubes, signal relative to DMSO ([2]; 0.5 uM)	CMV-LACZ in Myotubes, signal relative to DMSO ([2]; 1 uM)	CMV-LACZ in Myotubes, signal relative to DMSO ([2]; 5 uM)	CMV-LACZ in Myotubes, signal relative to DMSO ([2]; 10 uM)	CMV-LACZ in Myotubes, signal relative to DMSO ([2]; 20 uM)	CMV-LACZ in Myotubes, signal relative to DMSO ([2]; 40 uM)	Burkin Assay in Myoblasts, signal relative to DMSO ([3]; 0.5 uM)	Burkin Assay in Myoblasts, signal relative to DMSO ([3]; 1 uM)	Burkin Assay in Myoblasts, signal relative to DMSO ([3]; 5 uM)	Burkin Assay in Myoblasts, signal relative to DMSO ([3]; 10 uM)	Burkin Assay in Myoblasts, signal relative to DMSO ([3]; 20 uM)	Burkin Assay in Myoblasts, signal relative to DMSO ([3]; 40 uM)	Burkin Assay in Myotubes, α7 integrin LacZ reporter signal relative to DMSO ([4]; 0.5 uM)	Burkin Assay in Myotubes, α7 integrin LacZ reporter signal relative to DMSO ([4]; 1 uM)	also measured
CC(=O)Nc1ccc(NC(=O)C/C(C)=N/NC(=O)COc2cc(C)c(Br)cc2Br)cc1 [MLS000912562-01]	0.8680	0.9150	0.7103	0.6246	1.0302	0.8747	1.0905	0.8924	0.9602	1.1674	1.2090	1.2780	0.7697	0.929	1.039	0.9253	0.6911	0.5552	0.898	0.8582	Burkin Assay in Myotubes, α7 integrin LacZ reporter signal relative to DMSO ([4]; 5 uM): 0.929; Burkin Assay in Myotubes, α7 integrin LacZ reporter signal relative to DMSO ([4]; 10 uM): 0.8748; Burkin Assay in Myotubes, α7 integrin LacZ reporter signal relative to DMSO ([4]; 20 uM): 0.8872; Burkin Assay in Myotubes, α7 integrin LacZ reporter signal relative to DMSO ([4]; 40 uM): 0.7024
COc1ccc(CCNC(=O)Cn2nnc(C(=O)Nc3ccc(Br)cc3)c2N)cc1OC [MLS000912699-01]	0.7147	0.8744	0.9111	1.0462	0.8826	0.5204	0.8089	0.9859	0.9419	1.1310	0.9235	0.5365	1.115	1.038	0.9322	0.9298	0.6724	0.4392	1.175	0.9376	Burkin Assay in Myotubes, α7 integrin LacZ reporter signal relative to DMSO ([4]; 5 uM): 0.9252; Burkin Assay in Myotubes, α7 integrin LacZ reporter signal relative to DMSO ([4]; 10 uM): 0.939; Burkin Assay in Myotubes, α7 integrin LacZ reporter signal relative to DMSO ([4]; 20 uM): 0.5217; Burkin Assay in Myotubes, α7 integrin LacZ reporter signal relative to DMSO ([4]; 40 uM): 0.6518
CCOc1ccccc1NC(=O)c1cccc2c1C(=O)N(C1CCCCC1)C2 [MLS000912726-01]	1.1004	0.9692	1.0182	1.0325	1.0257	1.0643	0.8527	0.9264	0.9111	1.1041	1.2060	1.0150	1.279	1.177	0.9838	1.02	1.1258	1.022	1.066	0.8889	Burkin Assay in Myotubes, α7 integrin LacZ reporter signal relative to DMSO ([4]; 5 uM): 0.8818; Burkin Assay in Myotubes, α7 integrin LacZ reporter signal relative to DMSO ([4]; 10 uM): 0.886; Burkin Assay in Myotubes, α7 integrin LacZ reporter signal relative to DMSO ([4]; 20 uM): 0.8231; Burkin Assay in Myotubes, α7 integrin LacZ reporter signal relative to DMSO ([4]; 40 uM): 0.8237
COc1ccc(CNC(=O)C2CCCN(S(=O)(=O)c3c(C)noc3/C=C/N(C)C)C2)cc1 (stereo not drawn) [MLS000925023-01]	1.0703	0.9629	0.9762	0.8397	0.5504	0.3278	0.7505	1.1333	1.1638	0.8859	1.1565	1.1106	0.996	1.035	0.9523	0.7957	0.7765	0.4179	1.16	1.24	Burkin Assay in Myotubes, α7 integrin LacZ reporter signal relative to DMSO ([4]; 5 uM): 0.8969; Burkin Assay in Myotubes, α7 integrin LacZ reporter signal relative to DMSO ([4]; 10 uM): 0.8784; Burkin Assay in Myotubes, α7 integrin LacZ reporter signal relative to DMSO ([4]; 20 uM): 0.8004; Burkin Assay in Myotubes, α7 integrin LacZ reporter signal relative to DMSO ([4]; 40 uM): 0.7318
O=S(=O)(NC(=NC1CCCCC1)c1ccccc1F)c1ccccc1 [MLS000947910-01]	1.0094	0.9250	0.9452	1.0379	1.0870	1.0500	1.0333	0.8348	1.2332	0.8930	1.0165	1.0082	1.024	1.188	1.033	1.0429	1.047	1.018	1.134	1.101	Burkin Assay in Myotubes, α7 integrin LacZ reporter signal relative to DMSO ([4]; 5 uM): 1; Burkin Assay in Myotubes, α7 integrin LacZ reporter signal relative to DMSO ([4]; 10 uM): 1.035; Burkin Assay in Myotubes, α7 integrin LacZ reporter signal relative to DMSO ([4]; 20 uM): 0.9628; Burkin Assay in Myotubes, α7 integrin LacZ reporter signal relative to DMSO ([4]; 40 uM): 0.9515
CC1CCCCC1NC(=O)CSc1nnc(COc2ccc(Cl)cc2)o1 (stereo not drawn) [MLS000948055-01]	0.7540	0.9674	1.0787	1.0993	0.5407	0.5522	1.0895	0.9638	1.2519	1.1022	1.2212	1.0753	1.328	1.053	1.136	0.8986	0.8213	0.5867	1.067	1.054	Burkin Assay in Myotubes, α7 integrin LacZ reporter signal relative to DMSO ([4]; 5 uM): 0.9053; Burkin Assay in Myotubes, α7 integrin LacZ reporter signal relative to DMSO ([4]; 10 uM): 0.8264; Burkin Assay in Myotubes, α7 integrin LacZ reporter signal relative to DMSO ([4]; 20 uM): 0.98; Burkin Assay in Myotubes, α7 integrin LacZ reporter signal relative to DMSO ([4]; 40 uM): 0.7514
